Test results published in patent US6737383B1, “Herbicidal oxadiazolidines” (priority 1999, dated 2004).

Experiments:
Conditions in all cases: Preemergence, 0 to 100 scale
bermuda-grass = test: Test D bermudagrass; type: in vivo, Cynodon dactylon
Summary of the method: (§1)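 Herbicide screen in the greenhouse. A non-phytotoxic solvent mixture with surfactant carried the test chemical; in pre-emergence tests it went onto the soil of pots seeded no more than a day earlier. Injury was scored by eye 14 to 21 days after application, 0 to 100.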

itchgrass = test: Test D itchgrass; type: in vivo, Rottboellia exaltata
Summary of the method: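 Scoring used a 0–100 visual injury scale, with 0 meaning no effect and 100 complete control, assessed 14–21 days after application alongside untreated pots. Preemergence treatments went onto sandy loam surfaces of separately potted seeds within a day of sowing.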

dallisgrass = test: Test D dallisgrass; type: in vivo, Paspalum dilatatum
Summary of the method: as §1

surinam grass = test: Test D surinam grass; type: in vivo, Brachiaria decumbens
Summary of the method: as §1

sandbur = test: Test D sandbur; type: in vivo, Cenchrus echinatus
Summary of the method: as §1

tall mallow = test: Test D tall mallow; type: in vivo, Malva sylvestris
Summary of the method: as §1

Green foxtail = test: Test D green foxtail; type: in vivo
Summary of the method: as §1

pitted morningglory = test: Test D pitted morningglory; type: in vivo, Ipomoea lacunosa
Summary of the method: as §1

purple nutsedge = test: Test D purple nutsedge; type: in vivo, Cyperus rotundus
Summary of the method: as §1

common pursiane = test: Test D common purslane; type: in vivo, Portulaca oleracea
Summary of the method: as §1

guineagrass = test: Test D guineagrass; type: in vivo, Panicum maximum
Summary of the method: as §1

Spanishneedles = test: Test D Spanishneedles; type: in vivo, Bidens bipinnata
Summary of the method: as §1

large crabgrass = test: Test D large crabgrass; type: in vivo, Digitaria sanguinalis
Summary of the method: as §1

Johnson grass = test: Test D Johnson grass; type: in vivo, Sorghum halepense
Summary of the method: as §1

common ragweed = test: Test D common ragweed; type: in vivo, Ambrosia elatior
Summary of the method: as §1

[1] = Rate 16 g/ha, 0 no injury, 100 complete control
[2] = Rate 32 g/ha, 0 no injury, 100 complete control
[3] = Rate 64 g/ha, 0 no injury, 100 complete control
[4] = Rate 125 g/ha, 0 no injury, 100 complete control

## C=CCn1c(=O)on(C(=O)N(c2ccc(F)cc2F)C(C)C)c1=O [Compound 151]
bermuda-grass; [1]
  Plant response rating, Bermudagrass: 90
bermuda-grass; [2]
  Plant response rating, Bermudagrass: 90
bermuda-grass; [3]
  Plant response rating, Bermudagrass: 90
bermuda-grass; [4]
  Plant response rating, Bermudagrass: 100
bermuda-grass; Rate 250 g/ha
  Plant response rating, Bermudagrass: 100
bermuda-grass; Rate 500 g/ha
  Plant response rating, Bermudagrass: 100
itchgrass; [1]
  Plant response rating, Itchgrass: 0
itchgrass; [2]
  Plant response rating, Itchgrass: 0
itchgrass; [3]
  Plant response rating, Itchgrass: 75
itchgrass; [4]
  Plant response rating, Itchgrass: 85
itchgrass; Rate 250 g/ha
  Plant response rating, Itchgrass: 100
itchgrass; Rate 500 g/ha
  Plant response rating, Itchgrass: 100
dallisgrass; [1]
  Plant response rating, Dallisgrass: 100
dallisgrass; [2]
  Plant response rating, Dallisgrass: 85
dallisgrass; [3]
  Plant response rating, Dallisgrass: 100
dallisgrass; [4]
  Plant response rating, Dallisgrass: 100
dallisgrass; Rate 250 g/ha
  Plant response rating, Dallisgrass: 100
dallisgrass; Rate 500 g/ha
  Plant response rating, Dallisgrass: 100
Surinam grass; [1]
  Plant response rating, Surinam grass: 30
Surinam grass; [2]
  Plant response rating, Surinam grass: 30
Surinam grass; [3]
  Surinam grass plant response rating: 85
Surinam grass; [4]
  Surinam grass plant response rating: 100
Surinam grass; Rate 250 g/ha
  Plant response rating, Surinam grass: 100
Surinam grass; Rate 500 g/ha
  Plant response rating, Surinam grass: 100
sandbur; [1]
  Plant response rating, Sandbur: 0
sandbur; [2]
  Plant response rating, Sandbur: 20
sandbur; [3]
  Sandbur plant response rating: 90
sandbur; [4]
  Sandbur plant response rating: 100
sandbur; Rate 250 g/ha
  Plant response rating, Sandbur: 100
sandbur; Rate 500 g/ha
  Plant response rating, Sandbur: 100
Tall mallow; [1]
  Plant response rating, Tall Mallow: 0
Tall mallow; [2]
  Plant response rating, Tall Mallow: 0
Tall mallow; [3]
  Tall Mallow plant response rating: 0
Tall mallow; [4]
  Tall Mallow plant response rating: 75
Tall mallow; Rate 250 g/ha
  Plant response rating, Tall Mallow: 85
Tall mallow; Rate 500 g/ha
  Plant response rating, Tall Mallow: 85
Green foxtail; Rate 250 g/ha
  Plant response rating, Green foxtail: 100
Green foxtail; Rate 500 g/ha
  Plant response rating, Green foxtail: 100
Pitted morningglory; [1]
  Plant response rating, P. morninglory: 0
Pitted morningglory; [2]
  Plant response rating, P. morninglory: 0
Pitted morningglory; [3]
  Plant response rating, P. morninglory: 0
Pitted morningglory; [4]
  Plant response rating, P. morninglory: 0
Pitted morningglory; Rate 250 g/ha
  Plant response rating, P. morninglory: 0
Pitted morningglory; Rate 500 g/ha
  Plant response rating, P. morninglory: 20
Purple nutsedge; [1]
  Plant response rating, Purple nutsedge: 0
Purple nutsedge; [2]
  Plant response rating, Purple nutsedge: 0
Purple nutsedge; [3]
  Purple nutsedge plant response rating: 0
Purple nutsedge; [4]
  Purple nutsedge plant response rating: 30
Purple nutsedge; Rate 250 g/ha
  Plant response rating, Purple nutsedge: 65
Purple nutsedge; Rate 500 g/ha
  Plant response rating, Purple nutsedge: 70
Common pursiane; [1]
  Plant response rating, C. purslane: 0
Common pursiane; [2]
  Plant response rating, C. purslane: 0
Common pursiane; [3]
  Plant response rating, C. purslane: 0
Common pursiane; [4]
  Plant response rating, C. purslane: 0
Common pursiane; Rate 250 g/ha
  Plant response rating, C. purslane: 0
Common pursiane; Rate 500 g/ha
  Plant response rating, C. purslane: 0
guineagrass; [1]
  Plant response rating, Guineagrass: 85
guineagrass; [2]
  Plant response rating, Guineagrass: 90
guineagrass; [3]
  Plant response rating, Guineagrass: 100
guineagrass; [4]
  Plant response rating, Guineagrass: 100
guineagrass; Rate 250 g/ha
  Plant response rating, Guineagrass: 100
guineagrass; Rate 500 g/ha
  Plant response rating, Guineagrass: 100
Spanishneedles; [1]
  Plant response rating, Spanishneedles: 0
Spanishneedles; [2]
  Plant response rating, Spanishneedles: 0
Spanishneedles; [3]
  Spanishneedles plant response rating: 0
Spanishneedles; [4]
  Spanishneedles plant response rating: 0
Spanishneedles; Rate 250 g/ha
  Plant response rating, Spanishneedles: 0
Spanishneedles; Rate 500 g/ha
  Plant response rating, Spanishneedles: 40
Large crabgrass; [1]
  Plant response rating Large crabgrass: 98
Large crabgrass; [2]
  Plant response rating Large crabgrass: 98
Large crabgrass; [3]
  Plant response rating Large crabgrass: 100
Large crabgrass; [4]
  Plant response rating Large crabgrass: 100
Large crabgrass; Rate 250 g/ha
  Plant response rating Large crabgrass: 100
Large crabgrass; Rate 500 g/ha
  Plant response rating Large crabgrass: 100
Johnson grass; [1]
  Plant response rating Johnsongrass: 0
Johnson grass; [2]
  Plant response rating Johnsongrass: 0
Johnson grass; [3]
  Plant response rating Johnsongrass: 40
Johnson grass; [4]
  Plant response rating Johnsongrass: 50
Johnson grass; Rate 250 g/ha
  Plant response rating Johnsongrass: 50
Johnson grass; Rate 500 g/ha
  Plant response rating Johnsongrass: 100
Common ragweed; [1]
  Plant response rating, C. ragweed: 0
Common ragweed; [2]
  Plant response rating, C. ragweed: 0
Common ragweed; [3]
  Plant response rating, C. ragweed: 0
Common ragweed; [4]
  Plant response rating, C. ragweed: 0
Common ragweed; Rate 250 g/ha
  Plant response rating, C. ragweed: 20
Common ragweed; Rate 500 g/ha
  Plant response rating, C. ragweed: 20
